Values of other authors, collected in patent publication US20110021553A1, “IMMUNOSUPPRESSIVE MACROLIDE POWDER FOR ORAL SUSPENSION” (priority 2008, published 2011).

Legend:
[1] = tested on: skin mast cells, basophils and eosinophils; settings: in vitro
[2] = tested on: albumin and α1-glicoprotein; settings: mainly albumin and α1-glicoprotein
[3] = not given; remark: listed apart in the source
[4] = main metabolites via CYP3A4

Row | Compound | solubility in organic solvents (methanol, ethanol, acetone, ethyl acetate, chloroform and diethyl ether) | solubility in water (water) | release of mediators [1] | combination to proteins [2] [%] | excreted in unaltered state through urine ([3]; human, in vivo) | elimination through bile ([3]; main channel of elimination) | Bioavailability ([3]; oral, reduced with the presence of food) | time to concentration in steady state ([3]; orally 0.3 mg/Kg/day, liver transplant patients, majority of the cases) [days] | immunosuppressive effect [4]
1 | C=CC[C@@H]1/C=C(\C)C[C@H](C)C[C@H](OC)[C@H]2O[C@@](O)(C(=O)C(=O)N3CCCC[C@H]3C(=O)O[C@H](/C(C)=C/[C@@H]3CC[C@@H](O)[C@H](OC)C3)[C@H](C)[C@@H](O)CC1=O)[C@H](C)C[C@@H]2OC (relative stereo) [Tacrolimus, [3S-[3R*[E(1S*,3S*,4S*)], 4S*,5R*,8S*,9E,12R*,14R*,15S*,16R*,18S*,19S*,26aR*]]-5,6,8,11,12,13,14,15,16,17,18,19,24,25,26,26a-hexadecahydro-5,19-dihydroxy-3-[2-(4-hidroxy-3-metoxy-cyclohexyl)-1-metyletenyl]-14,16-dimethoxy-4,10,12,18-tetramethyl-8-(2-propenyl)-15,19-epoxy-3H-pyrido [2,1-c] [1,4] oxazacyclotricosine-1,7,20,21 (4H, 23H)-tetraone, monohydrate] | soluble | insoluble | decreases the release of the mediators | 99 | less than 1% | more than 90% | 4-89% | 3 | –
2 | C=CCC1C=C(C)CC(C)CC(OC)C2OC(O)(C(=O)C(=O)N3CCCCC3C(=O)OC(C(C)=CC3CCC(O)C(OC)C3)C(C)C(O)CC1=O)C(C)CC2O (stereo not shown) [13-O-desmethyl tacrolimus] | – | – | – | – | – | – | – | – | neither of which have a measurable immunosuppresive effect
3 | C=CCC1C=C(C)CC(C)CC(O)C2OC(O)(C(=O)C(=O)N3CCCCC3C(=O)OC(C(C)=CC3CCC(O)C(OC)C3)C(C)C(O)CC1=O)C(C)CC2OC (stereo not shown) [15-O-desmethyl tacrolimus] | – | – | – | – | – | – | – | – | neither of which have a measurable immunosuppresive effect
